The values below come from patent US6465465B1, “Process for the treatment of erectile dysfunction and product therefor” (Arzneimittelwerk Dresden GmbH, priority 2000, dated 2002).

One data set deals with T1, phosphodiesterase 5 (Homo sapiens, UniProt O76074).
T1 construct: The thrombocytes are lysed by ultrasound and used in the PDE 5 assay; from tissue; host or cells: human thrombocytes (platelets) from citrate-anticoagulated blood, lysed by ultrasound
The data set can be described thus: PDE 5 activity in enzyme preparations from human thrombocytes. In kind it is biochemical. As to conditions: human thrombocyte enzyme, 0.5 μM [3H]cGMP; read-out: IC50, inhibition of phosphodiesterase 5. The protocol:
PDE 5 activity is determined in enzyme preparations from human thrombocytes. Human blood was anti-coagulated with citrate. By centrifuging at 700 g for 20 minutes at room temperature, the thrombocyte-rich plasma in the supernatant is separated from the erythrocytes and leukocytes. The thrombocytes are lysed by ultrasound and used in the PDE 5 assay. With a few modifications, the phosphodiesterase activity is determined by the method described by Thompson et al. (Thompson, W. J., Appleman, M. M., Assay of cyclic nucleotide phosphodiesterase and resolution of multiple molecular forms of the enzyme, Adv. Cycl. Nucl. Res. 1979, 10, 69-92). The reaction mixtures contain 50 mM of tris HCl (pH 7.4), 5.5 mM of MgCl2, the inhibitors in variable concentrations, the enzyme preparation and the fuirther components necessary for determining the individual isoenzymes PDE 5 (see below). The reaction is started by the addition of the substrate, 0.5 μM of [^3H] cGMP (approximately 6,000 CPM/test). The final volume is […]. Test substances are prepared as stock solutions in DMSO. The DMSO concentration in the reaction mixture is 1% v/v. The PDE 5 activity is not affected by this concentration of DMSO. After the reaction is started by the addition of substrate, the samples are incubated for 30 minutes at 37° C. The reaction is stopped by heating the test tubes for 2 minutes at 110° C. The samples remain for a further 10 minutes in ice. The addition of 30 μL of 5′-nucleotidase (1 mg/mL, from a Crotalus adamanteus snake poison suspension) is followed by an incubation for 10 minutes at 37° C. The samples are stopped on ice. After the addition of 400 μL of a (1:1:1) mixture of Dowex, water and ethanol, the samples are mixed well and incubated once again for 15 minutes on ice. The reaction vessels are centrifuged for 20 minutes at 3,000 g. Subsequently, 200 μL aliquots of the supernatant are transferred directly to scintillation vessels. After the addition of 3 mL of scintillator, the samples are measured in the Betacounter. The in each case nonspecific enzyme activities are determined in the presence of 100 μM of IBMX for the determination of the PDE 5 and subtracted from the test values.

A further data set has as its system human atrium tissue. Briefly: Influencing cAMP and cGMP levels in human atrium strips. It is filed as cell-based. As to conditions: 1.0 μmoles/L, 10 minutes. The protocol: (§1) Strips of human atrium and human corpus cavernosum are incubated for 10 minutes with the test compounds at a concentration of 1.0 μmoles/L The preparations are frozen with liquid nitrogen and the resulting levels of the cyclic nucleotides are determined.

Data set [1] deals with human corpus cavernosum tissue. Briefly: Influencing cAMP and cGMP levels in human corpus cavernosum strips. In kind it is cell-based. As to conditions: 1.0 μmoles/L, 10 minutes. The protocol: as §1
The subject of data set [2] is human corpus cavernosum strips. The data set can be described thus: In vitro relaxation of human corpus cavernosum pre-contracted with noradrenalin. In kind it is cell-based. To be noted: organ bath. The protocol: Strips of human corpus cavernosum are pre-contracted in an organ bath with noradrenalin. For test compounds, the relaxation is determined as a function of the concentration.

The subject of data set [3] is Rat fetal lung fibroblast cells (RFL-6). The data set can be described thus: Reinforcement of NO donor-induced intracellular cGMP increase in rat fetal lung fibroblasts. It is filed as cell-based. As to conditions: RFL-6 cells. The source says:
Rat fetal lung fibroblast cells (RFL-6) represent a suitable medium for investigating influence of the action of NO on the intracellular cGNP level (Ishii et al. 1991). The basic mechanism can be transferred to the smooth vascular musculature of the corpus cavemosum.
As a fuinction of the concentration, the inventive compounds reinforce the increase in the intracellular cGXD level induced by the NO donor S-nitroso-N-acetyl-D,L-penicillamine.

For orientation: IC50 means the concentration that inhibits the measured activity by half. “5-(2,6-dichlrobenzyl)-1-ethyl-8-methoxy-3-methyl-imidazol[1,5-a]-pyrido[3,2-e]pyrazinone [Example 10]”: the concentration for half-maximal inhibition (IC50) at phosphodiesterase 5 amounted to 132 nM.

On to “5-cyclohexyl-1-ethyl-8-methoxy-3-methyl-imidazo[1,5-a]-pyrido[3,2-e]pyrazinone [Example 1]”, for which the 50% inhibitory concentration (IC50) at phosphodiesterase 5 is 25 nM.

As usually defined, the melting point is the temperature of the solid-liquid transition. As for `CCc1nc(C)c2c(=O)n(Cc3ccccc3)c3ccc(OC)nc3n12` [Example 2, 5-benzyl-1-ethyl-8-methoxy-3-methyl-imidazo[1,5-a]-pyrido[3,2-e]pyrazinone], the melting point lay within 166 to 167 °C. Further, at phosphodiesterase 5, the half-maximal inhibitory concentration (IC50) is 203 nM.

Regarding `CCc1nc(C)c2c(=O)n(Cc3ccccc3F)c3ccc(OC)nc3n12` [Example 5, 1-ethyl-5-(2-fluorobenzyl)-8-methoxy-3-methyl-imidazo[1,5-a]-pyrido[3,2-e]pyrazinone], the melting point was 186 to 187 °C. Further, the IC50 on phosphodiesterase 5 came out at 59 nM.

Take `CCc1nc(C)c2c(=O)n(Cc3ccc(OC)cc3)c3ccc(OC)nc3n12` [Example 7, 1-ethyl-8-methoxy-5-(4-methoxybenzyl)-8-methoxy-3-methyl-imidazo[1,5-a]-pyrido[3,2-e]pyrazinone]: the melting point fell in the range of 156 to 158 °C. Also, on phosphodiesterase 5, the IC50 was 104 nM.

`CCc1nc(C)c2c(=O)n(Cc3ccc(F)cc3)c3ccc(OC)nc3n12` [Example 8] came in with a melting point of 189 to 191 °C. The IC50 at phosphodiesterase 5 is 126 nM.

Consider `CCc1nc(C)c2c(=O)n(Cc3ccc(Cl)cc3)c3ccc(OC)nc3n12` [Example 9, 5-(4-chlorobenzyl)-1-ethyl-8-methoxy-3-methyl-imidazo[1,5-a]-pyrido[3,2-e]pyrazinone], for which the melting point lay in the range of 201 to 202 °C. Also, the IC50 at phosphodiesterase 5 is 112 nM.

With `CCc1nc(C)c2c(=O)n(Cc3c(F)cccc3Cl)c3ccc(OC)nc3n12` [Example 11, 5-(2-chloro-6-fluorobenzyl)-1-ethyl-8-methoxy-3-methyl-imidazo[1,5-a]-pyrido[3,2-e]pyrazinone], the melting point lay in the range of 197 to 200 °C. In the data set with human atrium tissue, the “increase of cAMP level” value came to 11% and the “increase of cGMP level” value was determined as 247%. Besides, in data set [1], the “increase of cAMP level” value is 80% and the “increase of cGMP level” value amounted to 214%. For the same compound, on phosphodiesterase 5, the IC50 amounted to 19 nM.

Turning to `CCc1nc(C)c2c(=O)n(Cc3c(F)cccc3F)c3ccc(OC)nc3n12` [Example 12, 5-(2,6-difluorobenzyl)-1-ethyl-8-methoxy-3-methyl-imidazo[1,5-a]-pyrido[3,2-e]pyrazinone], the melting point lay in the range of 177 to 180 °C. For the same compound, on phosphodiesterase 5, the IC50 came to 38 nM.

By EC50 is commonly meant the concentration giving half of the maximal effect. The compound `CCc1nc(C)c2c(=O)n(Cc3c(F)ccc(F)c3F)c3ccc(OC)nc3n12` [Example 13, 1-ethyl-8-methoxy-3-methyl-5-(2,3,6-trifluorobenzyl)-imidazo[1,5-a]-pyrido[3,2-e]pyrazinone] displayed a melting point of 183 to 185 °C. It took 150 nM to reach a half-maximal effect in data set [2] (EC50). Besides, the “effectiveness relative to the nonspecific PDE inhibitor IBMX” value in data set [3] (cGMP level increase) turned out to be 1000 times. Moreover, in data set [3] (compound at 0.10 μmoles/l, NO donor S-nitroso-N-acetyl-D,L-penicillamine), the “increase in the intracellular cGMP level” value was “significantly induces an increase”. Moreover, the 50% inhibitory concentration (IC50) on phosphodiesterase 5 came to 16 nM.

The compound `CCCc1nc(C)c2c(=O)n(Cc3c(F)cccc3Cl)c3ccc(OC)nc3n12` [Example 14, 5-(2-chloro-6-fluorobenzyl)-8-methoxy-3-methyl-1-propyl-imidazo[1,5-a]-pyrido[3,2-e]pyrazinone] yielded a melting point of 159 to 162 °C. In addition, the IC50 at phosphodiesterase 5 is 8 nM.

`CCCc1nc(C)c2c(=O)n(Cc3c(F)cccc3F)c3ccc(OC)nc3n12` [Example 15, 5-(2,6-difluorobenzyl)-8-methoxy-3-methyl-1-propyl-imidazo[1,5-a]-pyrido[3,2-e]pyrazinone] registered a melting point of 171 to 172 °C. Besides, the half-inhibitory concentration (IC50) at phosphodiesterase 5 is 2 nM.

The compound `CCCc1nc(C)c2c(=O)n(Cc3c(F)ccc(F)c3F)c3ccc(OC)nc3n12` [Example 16, 8-methoxy-3-methyl-1-propyl-5-(2,3,6-trifluorobenzyl)-imidazo[1,5-a]-pyrido[3,2-e]pyrazinone] came in with a melting point of 197 to 199 °C. In addition, the IC50 at phosphodiesterase 5 is 5 nM.

`CCCc1nn(C)c2c(=O)[nH]c(-c3cc(S(=O)(=O)N4CCN(C)CC4)ccc3OCC)nc12` [sildenafil, reference compound]: in the data set on human atrium tissue, the “increase of cAMP level” value stood at 240% and the “increase of cGMP level” value was 147%. In data set [1], the “increase of cAMP level” value came to 238% and the “increase of cGMP level” value came out at 15%.
